# Results published in patent US20150297509A1, “IMPLANTABLE DRUG DELIVERY COMPOSITIONS AND METHODS OF TREATMENT THEREOF” (BRAEBURN PHARMACEUTICALS BVBA SPRL, priority 2012, published 2015).
# Structures can show the parent of a compound that is named as a salt.
# Columns and labels:
# [1] = in vitro elution of lidocaine from TECOFLEX EG-93A polyurethane implants; format: physicochemical; conditions: TECOFLEX EG-93A tubing, about 180 mg pure lidocaine without excipients, 300 mL 0.9% saline at 37° C, daily exchanges, up to 8 days; for release of drug from the implant (in vitro elution): HPLC
# Protocol: (§1) The follow general procedure was followed for the manufacture of API-containing implants.
# (§2) Sterilization was accomplished by gamma irradiation of the implants.
# A total of about 180 mg pure (100%) lidocaine were loaded into the implant without any excipients (without any sorption enhancer or lubricant).
# [2] = in vitro elution of raloxifene from TECOFLEX EG-80A polyurethane implants; format: physicochemical; conditions: TECOFLEX EG-80A tubing, 88% API, 10% croscarmellose sodium, 2% stearic acid, about 250 mg raloxifene, 800 mL 0.9% saline at 37° C, weekly exchanges, HPLC, up to 20 weeks
# Protocol: as §1, §2
# The drug blend was 88% API, 10% sorption enhancer, and 2% lubricant. […] A total of about 250 mg raloxifene were loaded into the implant with 10% croscarmellose sodium and 2% stearic acid.
# [3] = oral dosage form, target oral daily dose about 60 mg; cited from earlier work
release of drug from the implant (in vitro elution) [2],SMILES,release of drug from the implant (in vitro elution) [1],further results
–,CCN(CC)CC(=O)Nc1c(C)cccc1C [lidocaine free base],readily released,in vitro elution rate from the implant [1]: more than 10 mg/day
–,CCN(CC)CC(=O)Nc1c(C)cccc1C [lidocaine hydrochloride],No drug was released,release of drug from the implant (in vitro elution) ([1]; listed as lidocaine HCl): no drug was released
readily released,"O=C(c1ccc(OCCN2CCCCC2)cc1)c1c(-c2ccc(O)cc2)sc2cc(O)ccc12 [raloxifene free base, [6-hydroxy-2-(4-hydroxyphenyl)-benzothiophen-3-yl]-[4-[2-(1-piperidyl)ethoxy]phenyl]-methanone]",–,–
No drug was released,O=C(c1ccc(OCCN2CCCCC2)cc1)c1c(-c2ccc(O)cc2)sc2cc(O)ccc12 [raloxifene hydrochloride],–,release of drug from the implant (in vitro elution) ([2]; listed as raloxifene HCI): no drug was released; oral bioavailability [3]: ~2%
